For assay [1], the target named is T1, RORγt (Homo sapiens, UniProt P51449).
T1 sequence (P51449 1-497 isoform P51449-2): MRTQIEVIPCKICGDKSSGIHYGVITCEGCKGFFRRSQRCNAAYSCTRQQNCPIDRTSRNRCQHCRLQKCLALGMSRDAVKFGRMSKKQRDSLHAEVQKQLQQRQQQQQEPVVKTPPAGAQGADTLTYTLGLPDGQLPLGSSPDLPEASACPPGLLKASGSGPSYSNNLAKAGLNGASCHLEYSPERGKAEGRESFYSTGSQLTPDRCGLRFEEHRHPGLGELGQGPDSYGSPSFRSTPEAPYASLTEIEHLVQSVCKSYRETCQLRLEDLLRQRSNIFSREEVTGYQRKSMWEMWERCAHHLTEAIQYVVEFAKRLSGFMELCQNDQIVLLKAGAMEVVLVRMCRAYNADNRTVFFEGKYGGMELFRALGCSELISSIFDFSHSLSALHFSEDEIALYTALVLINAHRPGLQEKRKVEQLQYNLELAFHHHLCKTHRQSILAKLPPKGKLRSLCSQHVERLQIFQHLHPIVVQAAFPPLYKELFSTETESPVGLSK
Nature of the assay: Jurkat reporter test (human IL-17 ROR response element luciferase reporter). Format: cell-based. As to conditions: read-out: luminescence level inhibitory rate (%) at test compound 3 μM. Here is the method: The Jurkat cells used for the reporter test were cultured in a culture medium (RPMI (Invitrogen), 10% FCS (AusGeneX), 100 U/mL penicillin, 100 μg/mL streptomycin). On the day of the test, 4×10^7 cells were recovered by a centrifugal operation (1000 rpm, 5 min.) and suspended in PBS (phosphate buffered saline) (Invitrogen). Thereafter, the cells were recovered again by a centrifugal operation, and suspended in 2 mL of R buffer (NEON transfection kit, Invitrogen). […] Gene transfer was performed by Electroporation apparatus (NEON, Invitrogen) under the conditions of pulse voltage 1350 V, interval 10 milliseconds, number of times 3. The cells after gene transfer were suspended in 40 mL of a reaction medium (RPMI, 10% Lipid reduced FCS (HyClone), 10 mM HEPES (pH 7.5), 100 U/mL penicillin, 100 μg/mL streptomycin, 5 μM lovastatin), and plated in a 96 well plate by 90 μL. A test compound diluted with the reaction medium was added by 10 μL, and the cells were cultured overnight in an incubator. Bright-Glo (Promega) was added by 100 μL, and the mixture was stirred at room temperature for 10 min, and the luminescence level was measured by Envision (PerkinElmer).
A general note: A reporter such as luciferase makes a cellular process visible.

In assay [2] the target is T1, RORγt. Nature of the assay: RORγt binding test (TR-FRET, fluorescent-labeled cholesterol). The settings on record: read-out: binding inhibitory rate (%) of fluorescent-labeled cholesterol to RORγt at test compound 1 μM. How it is done: The binding activity of the test compound to RORγt was measured by a time resolved fluorescence resonance energy transfer method (TR-FRET) utilizing histidine-tagged RORγt, fluorescent-labeled cholesterol (BODIPY-cholesterol, AVIVA), and terbium-labeled anti-histidine tag antibody (Invitrogen). First, a test compound diluted with an assay buffer (20 mM Tris-HCl (pH 7.5), 100 mM NaCl, 1 mM DTT, 0.1% BSA) was added to a 384 well plate by 3 μL. Then, RORγt diluted with an assay buffer to 240 nM was added by 3 μL, after which fluorescent-labeled cholesterol diluted with the assay buffer to 12 μM was added by 3 μL, and the mixture was stood at room temperature for 20 min. Thereafter, a terbium-labeled anti-histidine tag antibody diluted with the assay buffer to 8 nM was added by 3 μL. The mixture was stood at room temperature for 20 min, and fluorescence intensity (excitation wavelength 320 nm, fluorescence wavelength 520 nm, delay time 100 microseconds) was measured by Envision (PerkinElmer).
For orientation: Time-resolved FRET reads energy transfer from a long-lived donor to a nearby acceptor.

Assay [3] concerns the target T1, RORγt. Description: Cofactor recruitment test (Alpha Screen, biotinylated SRC-1 peptide). The settings on record: read-out: signal value inhibitory rate (%) at test compound 1 μM. The class given is biochemical. How it is done: Cofactor Recruitment Test
Cofactor recruitment test was performed by Alpha Screen (Histidine Detection Kit, PerkinElmer) method. First, a test compound was diluted with an assay buffer (50 mM Tris-HCl (pH 7.5), 50 mM KCl, 1 mM DTT, 0.1% BSA) and added to a 384 well plate by 5 μL. […] The mixture was stood in a dark place for 1 hr, and the signal value was measured by Envision (PerkinElmer).

Setting [4] is: test compound 3 μM, Jurkat cells.

Molecules are shown by their SMILES. Where two headings read alike, the source gives them in different places.

With `Cn1ncc2cc(C(NC(=O)[C@@H]3CNC(=O)C3)C(=O)Nc3ccc([Si](C)(C)C)c(F)c3)ccc21` (mixture of isomers) [Example 109, (3S)—N-(2-((3-fluoro-4-(trimethylsilyl)phenyl)amino)-1-(1-methyl-1H-indazol-5-yl)-2-oxoethyl)-5-oxopyrrolidine-3-carboxamide], in assay [1] (Jurkat), the inhibition at 3 µM was determined as 100%. Moreover, the inhibition at 1 µM in assay [2] was determined as 100%; in assay [3] it was 87.6%.
Consider `COCc1ccc(C(NC(=O)[C@@H]2CNC(=O)C2)C(=O)Nc2ccc(CC(C)(C)C)c(F)c2)cc1` (mixture of isomers) [Example 110, (3S)—N-(2-((4-(2,2-dimethylpropyl)-3-fluorophenyl)amino)-1-(4-(methoxymethyl)phenyl)-2-oxoethyl)-5-oxopyrrolidine-3-carboxamide], for which the inhibition at 3 µM in assay [1] (setting [4]) was 95.4%. Further, the inhibition at 1 µM in assay [2] was determined as 99.6%; in assay [3], 71.1%.
For the molecule `CC(C)(C)c1ccc(NC(=O)[C@H](NC(=O)C(O)C(F)(F)F)C2CCOCC2)cc1Cl` (single isomer, unassigned) [Example 11], in assay [1] (setting [4]), the inhibition at 3 µM is 97.5%. Moreover, the inhibition at 1 µM in assay [2] was 102%; in assay [3] it was 32%.
Regarding `COCc1ccc([C@@H](NC(=O)C2CNC(=O)C2)C(=O)Nc2ccc(CC(C)(C)C)c(F)c2)cc1` (stereo in doubt) [Example 115, (3S)-N-((1R)-2-((4-(2,2-dimethylpropyl)-3-fluorophenyl)amino)-1-(4-(methoxymethyl)phenyl)-2-oxoethyl)-5-oxopyrrolidine-3-carboxamide], the inhibition at 3 µM in assay [1] (setting [4]) was 97.3%. In addition, the inhibition at 1 µM stood at 102% in assay [2] and 71.6% in assay [3].
With `C[Si](C)(C)c1c(F)cc(NC(=O)C(NC(=O)Cn2cnccc2=O)C2CCOCC2)cc1F` (stereo not drawn) [Example 1, N-(3,5-difluoro-4-(trimethylsilyl)phenyl)-2-(((6-oxopyrimidin-1(6H)-yl)acetyl)amino)-2-(tetrahydro-2H-pyran-4-yl)acetamide], the inhibition at 3 µM in assay [1] (Jurkat) came out at 97.3%. For the same molecule, the inhibition at 1 µM was found to be 100% in assay [2] and 72.7% in assay [3].
On to `Cc1nnc(CC(=O)NC(C(=O)Nc2cc(F)c([Si](C)(C)C)c(F)c2)C2CCOCC2)o1` (stereo not drawn) [Example 2, N-(3,5-difluoro-4-(trimethylsilyl)phenyl)-2-(((5-methyl-1,3,4-oxadiazol-2-yl)acetyl)amino)-2-(tetrahydro-2H-pyran-4-yl)acetamide], for which the inhibition at 3 µM in assay [1] (Jurkat) was found to be 98.1%. Further, the inhibition at 1 µM was 102% in assay [2] and 78% in assay [3].
Regarding `C[Si](C)(C)c1c(F)cc(NC(=O)[C@H](NC(=O)c2cc(O)no2)C2CCOCC2)cc1F` [Example 3, N-((1R)-2-((3,5-difluoro-4-(trimethylsilyl)phenyl)amino)-2-oxo-1-(tetrahydro-2H-pyran-4-yl)ethyl)-3-hydroxy-1,2-oxazole-5-carboxamide], the inhibition at 3 µM in assay [1] (Jurkat) is 98.4%. Besides, the inhibition at 1 µM in assay [2] was found to be 100%; in assay [3], 72.3%.
As for `C[Si](C)(C)c1ccc(NC(=O)C(NC(=O)c2cc(O)no2)C2CCC(F)(F)CC2)cc1F` (stereo not drawn) [Example 4, N-(1-(4,4-difluorocyclohexyl)-2-((3-fluoro-4-(trimethylsilyl)phenyl)amino)-2-oxoethyl)-3-hydroxy-1,2-oxazole-5-carboxamide], in assay [1] (Jurkat), the inhibition at 3 µM turned out to be 97%. For the same molecule, the inhibition at 1 µM worked out at 100% in assay [2] and 78.8% in assay [3].
The like results for `C[Si](C)(C)c1ccc(NC(=O)C(NC(=O)[C@@H]2CNC(=O)C2)C2CCC(F)(F)CC2)cc1F` (stereo partly drawn) [Example 5, (3S)—N-(1-(4,4-difluorocyclohexyl)-2-((3-fluoro-4-(trimethylsilyl)phenyl)amino)-2-oxoethyl)-5-oxopyrrolidine-3-carboxamide] were, in that order, 98%, 100% and 84.8%.
For the molecule `CN(C(=O)c1cc(O)no1)C(C(=O)Nc1cc(F)c([Si](C)(C)C)c(F)c1)C1CCOCC1` (stereo not drawn) [Example 6, N-(2-((3,5-difluoro-4-(trimethylsilyl)phenyl)amino)-2-oxo-1-(tetrahydro-2H-pyran-4-yl)ethyl)-3-hydroxy-N-methyl-1,2-oxazole-5-carboxamide], the inhibition at 3 µM in assay [1] (Jurkat) came to 101%. Besides, the values for the inhibition at 1 µM in assay [2] and in assay [3] were 102% and 99.4%, respectively.
For `CC(C)(C)c1ccc(NC(=O)[C@H](NC(=O)[C@@H]2CNC(=O)C2)C2CCC(F)(F)CC2)cc1F` [Example 7, (3S)—N-((1R)-2-((4-tert-butyl-3-fluorophenyl)amino)-1-(4,4-difluorocyclohexyl)-2-oxoethyl)-5-oxopyrrolidine-3-carboxamide], in assay [1] (setting [4]), the inhibition at 3 µM is 97%. Further, the inhibition at 1 µM was determined as 102% in assay [2] and 56.9% in assay [3].
As to `CC(C)(C)c1ccc(NC(=O)[C@H](NC(=O)C2CNC(=O)O2)C2CCC(F)(F)CC2)cc1F` (stereo partly drawn) [Example 8, N-((1R)-2-((4-tert-butyl-3-fluorophenyl)amino)-1-(4,4-difluorocyclohexyl)-2-oxoethyl)-2-oxo-1,3-oxazolidine-5-carboxamide], the inhibition at 3 µM in assay [1] (setting [4]) was found to be 93.4%. The inhibition at 1 µM came out at 102% in assay [2] and 49.1% in assay [3].
On to `CC(C)(C)c1ccc(NC(=O)[C@H](NC(=O)CC(F)(F)F)C2CCOCC2)cc1Cl` [Example 9, N-((1R)-2-((4-tert-butyl-3-chlorophenyl)amino)-2-oxo-1-(tetrahydro-2H-pyran-4-yl)ethyl)-3,3,3-trifluoropropanamide], for which the inhibition at 3 µM in assay [1] (setting [4]) worked out at 97.6%. Also, the inhibition at 1 µM was found to be 100% in assay [2] and 29.7% in assay [3].
As to `CC(C)(C)c1ccc(NC(=O)[C@H](NC(=O)[C@@H](O)C(F)(F)F)C2CCOCC2)cc1Cl` [Example 10, N-((1R)-2-((4-tert-butyl-3-chlorophenyl)amino)-2-oxo-1-(tetrahydro-2H-pyran-4-yl)ethyl)-3,3,3-trifluoro-2-hydroxypropanamide], the inhibition at 3 µM in assay [1] (setting [4]) is 95.3%. The results for the inhibition at 1 µM in assay [2] and in assay [3] were 102% and 2.04%, respectively.
For `COc1ccc(C(NC(=O)C2CNC(=O)C2)C(=O)Nc2ccc([Si](C)(C)C)cc2)cc1` (stereo not drawn) [Example 13, N-(1-(4-methoxyphenyl)-2-oxo-2-((4-(trimethylsilyl)phenyl)amino)ethyl)-5-oxopyrrolidine-3-carboxamide], the inhibition at 3 µM in assay [1] (Jurkat) came out at 92.6%. The figures for the inhibition at 1 µM in assay [2] and in assay [3] were 101% and 51.1%, respectively.
In the case of `COc1ccc(C(C(=O)Nc2ccc([Si](C)(C)C)c(F)c2)N(C)C(=O)c2cc(O)no2)cc1` (stereo not drawn) [Example 15, N-(2-((3-fluoro-4-(trimethylsilyl)phenyl)amino)-1-(4-methoxyphenyl)-2-oxoethyl)-3-hydroxy-N-methyl-1,2-oxazole-5-carboxamide], the inhibition at 3 µM in assay [1] (Jurkat) turned out to be 99.4%. Further, the inhibition at 1 µM amounted to 109% in assay [2] and 91.6% in assay [3].
With `COc1ccc(C(NC(=O)Cc2ccc(=O)[nH]c2)C(=O)Nc2ccc([Si](C)(C)C)cc2)cc1` (stereo not drawn) [Example 16, 2-(4-methoxyphenyl)-2-(((6-oxo-1,6-dihydropyridin-3-yl)acetyl)amino)-N-(4-(trimethylsilyl)phenyl)acetamide], in assay [1] (Jurkat), the inhibition at 3 µM is 93.2%. In addition, the inhibition at 1 µM in assay [2] stood at 102%; in assay [3], 81.9%.

These data come from patent US11851449B2, “Heterocyclic amide compounds having an RORvt inhibitory action” (TAKEDA PHARMACEUTICAL COMPANY LIMITED, priority 2013, dated 2023).
